The values that follow come from patent US7399743B2, “Targeted thrombosis” (The Scripps Research Institute, priority 2001, dated 2008).

The subject of one data set is LnCap cells. The data set can be described thus: cell proliferation and viability assay (trypan blue). Conditions: without / with D-β-E 0.1 uM.
For a further data set, the target named is NAALADase. The conditions noted are these: read-out: Ki, inhibition of NAALADase activity; cited from earlier work.
Data set [1] concerns Factor X. Put plainly: proteolytic activity of TF construct:Factor VIIa complexes toward Factor X. The class given is biochemical. Conditions: soluble complexes, increasing concentration. How it is done:
The proteolytic activities of both Fn-TF:Factor VIIa and TF 1-218:Factor VIIa complexes toward Factor X were determined by a functional assay (Schullek, Ruf et al. 1994) using Spectrozyme Factor Xa to assess Factor Xa generation. Briefly, varying concentrations of Fn-TF and TF1-218 were pre-incubated with Factor VIIa (75 nM) for 5 minutes at 37° C. in the presence of 5 mM CaCl2. The reaction was initiated by addition of substrate Factor X (1.5 uM). After incubation for 10 minutes at 37° C., the reaction was terminated by adding EDTA to a concentration of 0.1M. The amount of Factor Xa generated was determined by measuring Factor Xa amidolytic activity using […] of the chromogenic substrate Spectrozyme Fxa (American Diagnostica, Greenwich, Conn.). The rate of absorbance increase at 405 nM was measured in a kinetic micro-titer plate reader.
The effect of the fused docking structure on the proteolytic activity of TF:VIIa was studied by a linked functional assay (Schullek, Ruf et al. 1994). Varying concentrations of Fn-TF or TF1-218 were allowed to bind to 10 pM Factor VIIa for 5 minutes. […] The reaction was stopped by addition of 50 mM EDTA and the amount of Factor Xa generated was determined by measuring the Factor Xa amidolytic activity in the assay mixture using spetrozyme FXa as described above.

A short description of data set [2]: median lethal dose in mice. The class given is in vivo. The conditions noted are these: 20 gm Balb/C mice.
Data set [3] deals with integrin-expressing CHO K1 cells. The data set can be described thus: cell-mediated coagulation assay with CHO K1 cells and human plasma. The class given is cell-based. How it is done:
Coagulation assays were performed using an established procedure with some modifications to include a step for binding Tissue Factor constructs to cells. Platelet depleted, citrated human plasma pooled from multiple donors was used for these experiments. Cells are dislodged with trypsin free cell dissociation buffer (Gibco), and washed twice with TBS. Cells were then counted with cytometer. Only cells with viability greater than 90% were used for the assay. Varying concentrations of thrombogen were incubated with 10^5 cells in 100 ul TBS containing Ca^++ 10 mM and Mg^++ 5 mM for 15 minutes at 37° C. The assays were initiated by addition of 100 ul of pooled citrated plasma pre-warmed to 37° C. Clotting times were recorded as the interval between assay initiation and clot appearance.
Activation of the coagulation cascade was measured using a coagulation assay. Varying concentrations of Fn-TF or Tissue Factor were incubated with CHO K1 cells for 15 minutes. Coagulation assays were initiated with addition of 100 ul of pooled normal human plasma. The coagulation time was recorded as the interim between the initiation of assay and the appearance of the first fibrin strands.

A further data set has as its system integrin on CHO cells. Put plainly: binding of Fn-TF to integrin-expressing CHO K1 cells (Western blot). The conditions noted are these: for association with CHO cells: varying concentrations, 10^5 CHO K1 cells. The protocol:
The binding of the Fn-TF protein to the integrin on CHO cells was monitored through direct incubation of varying concentrations of recombinant Fn-TF with 10^5 CHO K1 cells in TBS, 10 mM CaCl2, 5 mM MgSO4. The bound and unbound proteins were separated by centrifugation, and the bound Tissue Factor immunoreactivity was detected by Western blot. The amount of Tissue Factor bound was quantified by comparing the intensity of resulting bands on the membrane to that of a standard curve of Tissue Factor protein of known concentration using a densitometer.
For orientation: In western blotting, separated proteins are transferred to a membrane and probed.

The target in another data set is T1, Factor VIIa (Homo sapiens, UniProt P08709).
T1 sequence (P08709 61-212 limits assumed): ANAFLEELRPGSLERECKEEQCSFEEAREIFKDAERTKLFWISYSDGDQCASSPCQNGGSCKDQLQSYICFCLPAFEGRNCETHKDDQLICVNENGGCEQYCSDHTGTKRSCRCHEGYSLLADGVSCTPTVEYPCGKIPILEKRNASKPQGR
T1 sequence (P08709 213-466 limits assumed): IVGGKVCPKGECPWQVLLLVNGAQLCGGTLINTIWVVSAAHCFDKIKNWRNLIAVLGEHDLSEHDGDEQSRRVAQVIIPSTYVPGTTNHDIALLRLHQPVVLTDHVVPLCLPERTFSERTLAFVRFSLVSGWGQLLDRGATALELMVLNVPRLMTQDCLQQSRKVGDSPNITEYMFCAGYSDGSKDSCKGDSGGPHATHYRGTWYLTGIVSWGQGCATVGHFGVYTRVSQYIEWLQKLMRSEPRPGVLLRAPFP
Put plainly: amidolytic assay of Factor VIIa bound to Fn-TF or TF 1-218. Conditions: Factor VIIa 5nM, chromozym t-PA. The data set is classed as biochemical. The protocol:
The catalytic activity of Factor VIIa bound to Fn-TF for a peptidyl substrate was analyzed by hydrolysis of chromozym t-Pa (Boehringer Mannheim) and compared with that of the soluble TF 1-218. Varying concentrations TF 1-218 or Fn-TF were incubated with Factor VIIa at a final concentration of 5nM in the presence of 5 mM Ca^++ at ambient temperature for 15 minutes. Chromozym t-PA was added to a concentration of 1 mM. The initial rate of hydrolysis was measured at 406 nm with a kinetic micro-titer plate reader for 1 minute.

The test system of data set [4] is factor X. Conditions: native Tissue Factor in phospholipid membrane environment; cited from earlier work.

The Ki is a dissociation constant, usually derived from enzyme kinetics or from competition with a known ligand.

“Also recorded” adds a separate entry of the source.

Procedure for LnCap cells: A cell proliferation and viability assay was employed to assess DβE inhibitor activity using trypan blue staining. LnCap cells (4×10^4 cells/well) were seeded in 96 well plates. Different concentrations of the DβE inhibitor or the Asp-Glu (D-E) substrate were added to the media as indicated. The % cell viability was determined 48 hours after treatment as the number of living cells (unstained) divided by total cells count (stain+unstained cells).
A cell proliferation and viability assay was employed to assess DβE inhibitor activity using trypan blue staining. LnCap cells (4×10^4 cells/well) were seeded in 96 well plates. Different concentrations of the DβE inhibitor or the Asp-Glu (D-E) substrate were added to the media at the concentrations indicated in FIG. 13A. The % cell viability was determined 48 hours after treatment as the number of living cells (unstained) divided by total cells count (stain+unstained cells).
The cytotoxic effect of methotrexate was assessed with and without the presence of the PSMA inhibitor (D-β-E) or PSMA substrate (D-E) using a cell proliferation and viability assay.

On to `CN(Cc1cnc2nc(N)nc(N)c2n1)c1ccc(C(=O)N[C@@H](CCC(=O)O)C(=O)O)cc1` [MTX, methotrexate], for which the “ID50/ID50* (enhancement of tumoricidal activity)” value in the data set with LnCap cells is given as 20.
For `N[C@@H](Cn1oc(=O)[nH]c1=O)C(=O)O` [Quisqalic acid, quisqalic acid], the Ki on NAALADase was 1900 nM.
As for “Fn-TF: fusion of fibronectin type III repeat domains 8-11 (SEQ ID NO:9) or domain 10 (SEQ ID NO:10) with Tissue Factor residues 3-218”, in the data set with Factor X [1], the “proteolytic activity of the Factor VIIa complex toward Factor X” value was “increased proteolytic activity similar to the curve obtained with TF1-218”. In data set [2], the “LD50 (median lethal dose)” value is “about 8 ug”. In data set [3] (75 nM Fn-TF, 10^5 CHO K1 cells), the “coagulation activity compared with CHO K1 cells expressing approximately 5×10^5 native Tissue Factor molecules” value is on record as “approximately the same level of coagulation activity”. The coagulation activity in data set [3] (approximately 100,000 Fn-TF:integrin complexes per cell, CHO K1 cells) was 40,000 milliunits. For the same molecule, the coagulation time result in data set [3] (approximately 100,000 Fn-TF:integrin complexes per cell, CHO K1 cells, human plasma) is “about 20 seconds”. Further, in the data set on integrin on CHO cells (75 nM Fn-TF incubated with 10^5 CHO K1 cells in 100 ul), the “Fn-TF molecules bound per cell” value is recorded as “approximately 5×10^5”. The “association with CHO cells” value in the data set with integrin on CHO cells is “increasing amounts of Fn-TF become associated with CHO cells”. The “cofactor enhancement of Factor VIIa amidolytic activity, compared with Tissue Factor” value in the data set with Factor VIIa is “Very little difference in amidolytic activity”.
“RGDS: RGDS (SEQ ID NO: 17) peptide that binds integrin (A RGDS peptide.) [reference compound]”: the “inhibition of Fn-TF coagulation activity by RGDS peptide” value in data set [3] (Fn-TF (20 nM)+RGDS (500 μM), CHO K1 cells) is recorded as “fully blocked; also recorded: almost completely inhibited”.

B1: TF1-218: soluble extracellular domain of human Tissue Factor, SEQ ID NO:4 (protein, listed as Homo sapiens)
chain: SGTTNTVAAYNLTWKSTNFKTILEWEPKPVNQVYTVQISTKSGDWKSKCFYTTDTECDLTDEIVKDVKQTYLARVFSYPAGNVESTGSAGEPLYENSPEFTPYLETNLGQPTIQSFEQVGTKVNVTVEDERTLVRRNNTFLSLRDVFGKDLIYTLYYWKSSSSGKKTAKTNTNEFLIDVDKGENYCFSVQAVIPSRTVNRKSTDSPVECMGQEKGEFR
As to B1, the “LD50 (median lethal dose)” value in data set [2] is “greater than 500 ug”. Besides, in the data set on integrin on CHO cells, the “association with CHO cells” value is given as “no demonstrable association”.

B2: truncated Tissue Factor: recombinant Tissue Factor containing only the extracellular domain, 219 amino acids, soluble (protein, listed as Homo sapiens)
chain: SGTTNTVAAYNLTWKSTNFKTILEWEPKPVNQVYTVQISTKSGDWKSKCFYTTDTECDLTDEIVKDVKQTYLARVFSYPAGNVESTGSAGEPLYENSPEFTPYLETNLGQPTIQSFEQVGTKVNVTVEDERTLVRRNNTFLSLRDVFGKDLIYTLYYWKSSSSGKKTAKTNTNEFLIDVDKGENYCFSVQAVIPSRTVNRKSTDSPVECMGQEKGEFRE
Consider B2, for which the “times less factor X-activating activity than native Tissue Factor” value with factor X [4] is on record as “approximately 10^5”.
